Values quoted from earlier work as cited in patent US20230180818A1, “AEROSOLISED FORMULATION” (NICOVENTURES TRADING LIMITED, priority 2018, published 2023).

Settings: compared to base cyclodextrins such as β-cyclodextrin

2-hydroxy-propyl-β-cyclodextrin
solubility in water: increased solubility in water
